Laboratory results reported in patent US20200377496A1, “INDOLE AND BENZIMIDAZOLE DERIVATIVES AS DUAL 5-HT2A and 5-HT6 RECEPTOR ANTAGONISTS” (ADAMED PHARMA, S.A., priority 2018, published 2020).

Tested on: scopolamine-induced deficits in learning and memory
Test: Scopolamine-induced deficits in step-through passive avoidance test in Wistar rats
Type: in vivo
Conditions: hydrochloride salt p.o. 180 min before training; scopolamine 0.3 mg/kg i.p.; male Wistar rats
Description: Biological Example 4. Effects of Compounds 1 and 17, on Scopolamine-Induced Deficits in Learning and Memory in the Passive Avoidance Test in Wistar Rats
Drug-naive male Wistar rats (Charles River, Sulzfeld, Germany) were used. Rats were housed four per standard plastic cage and kept in a room with constant environmental conditions (22±1° C., relative humidity 60%, a 12:12 light-dark cycle with lights on at 7:00 a.m.). Animals were supplied by the breeder 2-3 weeks before the onset of behavioral procedures. During this time, the subjects were weighted and handled several times. […]
Effects of tested compounds on learning and memory function were evaluated using a step-through passive avoidance test (Ishiyama et al., 2007). […]
In the training (acquisition) session, the animals were individually placed in the lighted compartment and allowed to explore it freely for 10 s. The sliding door was then opened, and the step-through latency for animals to enter the dark compartment was measured with a 300-s cut-off time. […]
The test (expression) session was performed 24 h after the training session using the same paradigm but without any foot-shock or drug injections. Step-through latencies for animals to enter the dark compartment were measured with a 300-s cut-off time. […]
Body weights (g) and training/test latencies (s) were analyzed with the aid of a one-way analysis of variance (ANOVA). […]

SMILES	minimal effective dose, elongation of step-through latencies in test session [mg/kg]
FC(F)(F)c1nc2c(N3CCNCC3)cccc2n1Cc1ccccc1 [Compound 1, 1-benzyl-4-(piperazin-1-yl)-2-(trifluoromethyl)-1H-benzimidazole]	3.0
FC(F)(F)c1cc2c(N3CCNCC3)cccc2n1Cc1ccco1 [Compound 17, 1-(furan-2-ylmethyl)-4-(piperazin-1-yl)-2-(trifluoromethyl)-1H-indole]	1.0
